In PubChem BioAssay (NCI):
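Method: 48-hour compound exposure of cells in 96-well plates, five concentrations, linear interpolation of endpoints. At the GI50, growth is halved. At the TGI there is no net growth.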

Tests used:
Assay in all cases: NCI tumour cell line growth inhibition, 48 h
786-0 renal = test system: 786-0 renal
A498 renal = test system: A498 renal
A549 NSCLC = test system: A549 NSCLC
ACHN renal = test system: ACHN renal
BT-549 breast = test system: BT-549 breast
CAKI-1 renal = test system: CAKI-1 renal
CCRF-CEM leukemia = test system: CCRF-CEM leukemia
COLO 205 colon = test system: COLO 205 colon
DU-145 prostate = test system: DU-145 prostate
EKVX NSCLC = test system: EKVX NSCLC
HCC-2998 colon = test system: HCC-2998 colon
HCT-116 colon = test system: HCT-116 colon
HCT-15 colon = test system: HCT-15 colon
HL-60(TB) leukemia = test system: HL-60(TB) leukemia
HOP-62 NSCLC = test system: HOP-62 NSCLC
HOP-92 NSCLC = test system: HOP-92 NSCLC
HS 578T breast = test system: HS 578T breast
HT29 colon = test system: HT29 colon
IGROV1 ovarian = test system: IGROV1 ovarian
K-562 leukemia = test system: K-562 leukemia
KM12 colon = test system: KM12 colon
LOX IMVI melanoma = test system: LOX IMVI melanoma
M14 melanoma = test system: M14 melanoma
MALME-3M melanoma = test system: MALME-3M melanoma
MCF7 breast = test system: MCF7 breast
MDA-MB-231 breast = test system: MDA-MB-231 breast
MDA-MB-435 = test system: MDA-MB-435
MOLT-4 leukemia = test system: MOLT-4 leukemia
NCI-H226 lung = test system: NCI-H226 lung
NCI-H23 lung = test system: NCI-H23 lung
NCI-H460 lung = test system: NCI-H460 lung
NCI-H522 lung = test system: NCI-H522 lung
NCI/ADR-RES ovarian = test system: NCI/ADR-RES ovarian
OVCAR-3 ovarian = test system: OVCAR-3 ovarian
OVCAR-4 ovarian = test system: OVCAR-4 ovarian
OVCAR-5 ovarian = test system: OVCAR-5 ovarian
OVCAR-8 ovarian = test system: OVCAR-8 ovarian
PC-3 prostate = test system: PC-3 prostate
RPMI-8226 leukemia = test system: RPMI-8226 leukemia
RXF 393 renal = test system: RXF 393 renal
SF-268 CNS = test system: SF-268 CNS
SF-295 CNS = test system: SF-295 CNS
SF-539 CNS = test system: SF-539 CNS
SK-MEL-2 melanoma = test system: SK-MEL-2 melanoma
SK-MEL-28 melanoma = test system: SK-MEL-28 melanoma
SK-MEL-5 melanoma = test system: SK-MEL-5 melanoma
SK-OV-3 ovarian = test system: SK-OV-3 ovarian
SN12C renal = test system: SN12C renal
SNB-19 CNS = test system: SNB-19 CNS
SNB-75 CNS = test system: SNB-75 CNS
SR leukemia = test system: SR leukemia
SW-620 colon = test system: SW-620 colon
T-47D breast = test system: T-47D breast
TK-10 renal = test system: TK-10 renal
U251 CNS = test system: U251 CNS
UACC-257 melanoma = test system: UACC-257 melanoma
UACC-62 melanoma = test system: UACC-62 melanoma
UO-31 renal = test system: UO-31 renal

COC(=O)[C@H](C[C@H](Cc1ccccc1)NC(=O)c1csc([C@@H](C[C@H](C(C)C)N(C)C(=O)[C@@H](NC(=O)[C@H]2CCCCN2C)C(C)C)OC(C)=O)n1)NC(=O)OCc1ccccc1
GI50 (786-0 renal): 1.59 nM
TGI (786-0 renal): > 3670 nM
GI50 (A498 renal): 1.12 nM
TGI (A498 renal): 10.1 nM
GI50 (A549 NSCLC): 1.56 nM
TGI (A549 NSCLC): > 9000 nM
GI50 (ACHN renal): 2.43 nM
TGI (ACHN renal): > 9000 nM
GI50 (BT-549 breast): < 0.9 nM
TGI (BT-549 breast): 68.9 nM
GI50 (CAKI-1 renal): 1.68 nM
TGI (CAKI-1 renal): > 9000 nM
GI50 (CCRF-CEM leukemia): < 0.9 nM
TGI (CCRF-CEM leukemia): > 9000 nM
GI50 (COLO 205 colon): < 0.9 nM
GI50 (DU-145 prostate): < 0.9 nM
TGI (DU-145 prostate): 1310 nM
GI50 (EKVX NSCLC): 8.43 nM
TGI (EKVX NSCLC): > 9000 nM
GI50 (HCC-2998 colon): < 0.9 nM
TGI (HCC-2998 colon): > 5640 nM
GI50 (HCT-116 colon): < 0.9 nM
GI50 (HCT-15 colon): 4.01 nM
TGI (HCT-15 colon): > 9000 nM
GI50 (HL-60(TB) leukemia): < 0.9 nM
TGI (HL-60(TB) leukemia): 1.78 nM
GI50 (HOP-62 NSCLC): < 0.9 nM
TGI (HOP-62 NSCLC): > 9000 nM
GI50 (HOP-92 NSCLC): 1.63 nM
TGI (HOP-92 NSCLC): > 9000 nM
GI50 (HS 578T breast): < 0.9 nM
TGI (HS 578T breast): > 4930 nM
GI50 (HT29 colon): < 0.9 nM
GI50 (IGROV1 ovarian): 1.19 nM
TGI (IGROV1 ovarian): > 4040 nM
GI50 (K-562 leukemia): < 0.9 nM
TGI (K-562 leukemia): > 3460 nM
GI50 (KM12 colon): < 0.9 nM
TGI (KM12 colon): > 9000 nM
GI50 (LOX IMVI melanoma): < 0.9 nM
TGI (LOX IMVI melanoma): > 9000 nM
GI50 (M14 melanoma): < 0.9 nM
TGI (M14 melanoma): 365 nM
GI50 (MALME-3M melanoma): < 0.9 nM
TGI (MALME-3M melanoma): 2670 nM
GI50 (MCF7 breast): < 0.9 nM
TGI (MCF7 breast): > 9000 nM
GI50 (MDA-MB-231 breast): 1.08 nM
TGI (MDA-MB-231 breast): > 4900 nM
GI50 (MDA-MB-435): < 0.9 nM
TGI (MDA-MB-435): < 0.9 nM
GI50 (MOLT-4 leukemia): < 0.9 nM
TGI (MOLT-4 leukemia): > 9000 nM
GI50 (NCI-H226 lung): 1.44 nM
TGI (NCI-H226 lung): 79.9 nM
GI50 (NCI-H23 lung): 1.11 nM
TGI (NCI-H23 lung): > 9000 nM
GI50 (NCI-H460 lung): < 0.9 nM
TGI (NCI-H460 lung): > 9000 nM
GI50 (NCI-H522 lung): < 0.9 nM
TGI (NCI-H522 lung): 52.5 nM
GI50 (NCI/ADR-RES ovarian): 33.3 nM
TGI (NCI/ADR-RES ovarian): 1520 nM
GI50 (OVCAR-3 ovarian): < 0.9 nM
GI50 (OVCAR-4 ovarian): 12.4 nM
TGI (OVCAR-4 ovarian): > 9000 nM
GI50 (OVCAR-5 ovarian): 4.6 nM
TGI (OVCAR-5 ovarian): > 9000 nM
GI50 (OVCAR-8 ovarian): < 0.9 nM
TGI (OVCAR-8 ovarian): > 9000 nM
GI50 (PC-3 prostate): < 0.9 nM
TGI (PC-3 prostate): > 9000 nM
GI50 (RPMI-8226 leukemia): < 0.9 nM
TGI (RPMI-8226 leukemia): 2340 nM
GI50 (RXF 393 renal): < 0.9 nM
TGI (RXF 393 renal): > 9000 nM
GI50 (SF-268 CNS): 0.974 nM
TGI (SF-268 CNS): > 9000 nM
GI50 (SF-295 CNS): 1.28 nM
TGI (SF-295 CNS): > 9000 nM
GI50 (SF-539 CNS): < 0.9 nM
TGI (SF-539 CNS): 3.67 nM
GI50 (SK-MEL-2 melanoma): < 0.9 nM
TGI (SK-MEL-2 melanoma): 4530 nM
GI50 (SK-MEL-28 melanoma): 2.5 nM
TGI (SK-MEL-28 melanoma): 2500 nM
GI50 (SK-MEL-5 melanoma): < 0.9 nM
TGI (SK-MEL-5 melanoma): 18.2 nM
GI50 (SK-OV-3 ovarian): 1.99 nM
TGI (SK-OV-3 ovarian): > 9000 nM
GI50 (SN12C renal): < 0.9 nM
TGI (SN12C renal): > 9000 nM
GI50 (SNB-19 CNS): < 0.9 nM
TGI (SNB-19 CNS): > 9000 nM
GI50 (SNB-75 CNS): < 0.9 nM
TGI (SNB-75 CNS): > 9000 nM
GI50 (SR leukemia): < 0.9 nM
TGI (SR leukemia): > 4290 nM
GI50 (SW-620 colon): < 0.9 nM
TGI (SW-620 colon): > 9000 nM
GI50 (T-47D breast): < 0.9 nM
TGI (T-47D breast): > 9000 nM
GI50 (TK-10 renal): 110 nM
TGI (TK-10 renal): > 9000 nM
GI50 (U251 CNS): < 0.9 nM
TGI (U251 CNS): > 9000 nM
GI50 (UACC-257 melanoma): 34.9 nM
TGI (UACC-257 melanoma): 2780 nM
GI50 (UACC-62 melanoma): < 0.9 nM
TGI (UACC-62 melanoma): > 9000 nM
GI50 (UO-31 renal): 11.1 nM
TGI (UO-31 renal): > 9000 nM
